Where a name gives a salt, the structure may show the parent alone.
Structure (SMILES) | melting point
COc1c(N2C[C@H]3[C@@H](F)CC[C@@]3(N)C2)c(F)cc2c(=O)c(C(=O)O)cn([C@@H]3C[C@@H]3F)c12 [Example 21, 7-[(1S,5R,6S)-1-Amino-6-fluoro-3-azabicyclo[3,3,0]octan-3-yl]-6-fluoro-1-[(1R,2S)-2-fluorocyclopropyl]-1,4-dihydro-8-methoxy-4-oxoquinoline-3-carboxylic acid] | 117 to 119 °C
Cc1c(N2C[C@H]3CCOC[C@@]3(N)C2)c(F)cc2c(=O)c(C(=O)O)cn([C@@H]3C[C@@H]3F)c12 [Example 41, 7-[(1S,6R)-1-Amino-3-oxa-8-azabicyclo[4,3,0]nonan-8-yl]-6-fluoro-1-[(1R,2S)-2-fluorocyclopropyl]-1,4-dihydro-8-methyl-4-oxoquinoline-3-carboxylic acid] | 158 to 160 °C
C[C@H]1COc2c(N3C[C@]4(N)CCC[C@]4(F)C3)c(F)cc3c(=O)c(C(=O)O)cn1c23 [Example 13, 10-[(1R,5S)-1-Amino-5-fluoro-3-azabicyclo[3.3.0]octan-3-yl]-9-fluoro-2,3-dihydro-3-(S)-methyl-7-oxo-7H-pyrido[1,2,3-de][1,4]benzoxazine-6-carboxylic acid] | 285 to 293 °C (dec.)
COc1c(N2C[C@H]3C(F)(F)CC[C@@]3(N)C2)c(F)cc2c(=O)c(C(=O)O)cn([C@@H]3C[C@@H]3F)c12 [Example 22, 7-[(1S,5R)-1-Amino-6,6-difluoro-3-azabicyclo[3,3,0]octan-3-yl]-6-fluoro-1-[(1R,2S)-2-fluorocyclopropyl]-1,4-dihydro-8-methoxy-4-oxoquinoline-3-carboxylic acid] | 239 to 241 °C
COc1c(N2C[C@@H]3CCC[C@]3(N)C2)c(F)cc2c(=O)c(C(=O)O)cn([C@@H]3C[C@@H]3F)c12 (relative stereo) [Example 12, 7-[(1R*,5S*)-1-Amino-3-azabicyclo[3.3.0]octan-3-yl]-6-fluoro-1-[(1R,2S)-2-fluorocyclopropyl]-8-methoxy-1,4-dihydro-4-oxoquinoline-3-carboxylic acid] | 171 to 174 °C
N#Cc1c(N2C[C@]3(N)CCC[C@]3(F)C2)c(F)cc2c(=O)c(C(=O)O)cn([C@@H]3C[C@@H]3F)c12 [Example 14, 7-[(1R,5S)-1-Amino-5-fluoro-3-azabicyclo[3.3.0]octan-3-yl]-8-cyano-6-fluoro-1-[(1R,2S)-2-fluorocyclopropan-1-yl]-1,4-dihydro-4-oxoquinoline-3-carboxylic acid] | 268 to 280 °C (dec.)
COc1c(N2C[C@H]3[C@H](F)CC[C@@]3(N)C2)c(F)cc2c(=O)c(C(=O)O)cn([C@@H]3C[C@@H]3F)c12 [Example 20, 7-{(1S,5R,6R)-1-Amino-6-fluoro-3-azabicyclo[3,3,0]octan-3-yl}-6-fluoro-1-[(1R,2S)-2-fluorocyclopropyl]-1,4-dihydro-8-methoxy-4-oxoquinoline-3-carboxylic acid] | 179 to 181 °C
COc1c(N2CC3(C)CCC3(N)C2)c(F)cc2c(=O)c(C(=O)O)cn([C@@H]3C[C@@H]3F)c12 (stereo in doubt) [Example 7, 7-[(1R,5S)-1-Amino-5-methyl-3-azabicyclo[3.2.0]hept-3-yl]-6-fluoro-1-[(1R,2S)-2-fluorocyclopropyl]-1,4-dihydro-8-methoxy-4-oxoquinoline-3-carboxylic acid] | 123 to 125 °C
C[C@H]1C[C@@]2(N)CN(c3c(F)cc4c(=O)c(C(=O)O)cn5c4c3OC[C@@H]5C)C[C@@H]12 [Example 3, 10-{(1S,5R,6S)-1-Amino-6-methyl-3-azabicyclo[3.2.0]hept-3-yl}-9-fluoro-2,3-dihydro-3-(S)-methyl-7-oxo-7H-pyrido[1,2,3-de][1, 4]benzoxazine-6-carboxylic acid] | 122 to 124 °C
COc1c(N2C[C@]3(N)CC[C@]3(F)C2)c(F)cc2c(=O)c(C(=O)O)cn([C@@H]3C[C@@H]3F)c12 [Example 6, 7-[(1R,5S)-1-Amino-5-fluoro-3-azabicyclo[3.2.0]hept-3-yl]-6-fluoro-1-[(1R,2S)-2-fluorocyclopropyl]-1,4-dihydro-8-methoxy-4-oxoquinoline-3-carboxylic acid] | 235 °C (dec.)

Continued, values first:

melting point | Structure (SMILES)
122 to 125 °C | COc1c(N2C[C@H]3C(CF)C[C@@]3(N)C2)c(F)cc2c(=O)c(C(=O)O)cn([C@@H]3C[C@@H]3F)c12 (single isomer, unassigned) [Example 49]
145 to 149 °C | Cc1c(N2CC3(N)CCC4CC43C2)c(F)cc2c(=O)c(C(=O)O)cn([C@@H]3C[C@@H]3F)c12 (single isomer, unassigned) [Example 54]
161 to 163 °C | COc1c(N2CC3(Cl)CCC[C@@]3(N)C2)c(F)cc2c(=O)c(C(=O)O)cn([C@@H]3C[C@@H]3F)c12 (stereo in doubt) [Example 53, 7-[(1R,5R)-1-Amino-5-chloro-3-azabicyclo[3.3.0]octan-3-yl]-6-fluoro-1-[(1R,2S)-2-fluorocyclopropan-1-yl]-1,4-dihydro-8-methoxy-4-oxoquinoline-3-carboxylic acid]
> 272 °C (dec.) | Cc1c(N2C[C@]3(N)CC[C@]3(F)C2)c(F)cc2c(=O)c(C(=O)O)cn([C@@H]3C[C@@H]3F)c12 [Example 56, 7-{(1R,5S)-1-Amino-5-fluoro-3-azabicyclo[3.2.0]heptan-3-yl}-6-fluoro-1-[(1R,2S)-2-fluorocyclopropan-1-yl]-8-methyl-4-oxo-1,4-dihydroquinoline-3-carboxylic acid]
201 to 202 °C | COc1c(N2C[C@H]3COC[C@@]3(N)C2)c(F)cc2c(=O)c(C(=O)O)cn([C@@H]3C[C@@H]3F)c12 [Example 59, 7-[(3aS)-3a-Aminotetrahydrofuro[3,4-c]pyrrol-5-yl]-6-fluoro-1-[(1R,2S)-2-fluorocyclopropyl]-1,4-dihydro-8-methoxy-4-oxoquinoline-3-carboxylic acid]
193 to 195 °C | COc1c(N2C[C@H]3C(CF)C[C@@]3(N)C2)c(F)cc2c(=O)c(C(=O)O)cn([C@@H]3C[C@@H]3F)c12 (single isomer, unassigned) [Example 50]
202 to 204 °C | COc1c(N2CC3(N)CCC4CC43C2)c(F)cc2c(=O)c(C(=O)O)cn([C@@H]3C[C@@H]3F)c12 (stereo partly drawn) (as salt: methanesulfonate) [Example 57, 7-[6-amino-8-azatricyclo[4.3.0.0^1,3]nonan-8-yl]-6-fluoro-1-[(1R,2S)-2-fluorocyclopropan-1-yl]-8-methoxy-4-oxo-1,4-dihydroquinoline-3-carboxylic acid methanesulfonate]
> 300 °C | C[C@H]1COc2c(N3C[C@@H]4CCOC[C@@]4(N)C3)c(F)cc3c(=O)c(C(=O)O)cn1c23 [Example 42, 10-[(1S,6S)-1-Amino-3-oxa-8-azabicyclo[4,3,0]nonan-8-yl]-9-fluoro-2,3-dihydro-3-methyl-(S)-7-oxo-7H-pyrido[1,2,3-de][1,4]benzoxazine-6-carboxylic acid]
130 to 133 °C | Cc1c(N2C[C@H]3C(CF)C[C@@]3(N)C2)c(F)cc2c(=O)c(C(=O)O)cn([C@@H]3C[C@@H]3F)c12 (single isomer, unassigned) [Example 51]
> 254 °C (dec.) | Cc1c(N2CC3(N)CCC4CC43C2)ccc2c(=O)c(C(=O)O)cn([C@@H]3C[C@@H]3F)c12 (single isomer, unassigned) [Example 55]

From patent US8618094B2, “Fused substituted aminopyrrolidine derivative” (Daiichi Sankyo Company, Limited, priority 2007, dated 2013)
